Here are results for one molecule from ChEMBL document CHEMBL1139024, “Synthesis and evaluation of an N-acylated photoactivatable analogue of glutathione as probe for glutathione-utilizing enzymes” (Bioorg Med Chem Lett, 2006).

The nature of the assay: Inhibition of glutathione S-transferase in rat liver.

Usually IC50 stands for the point on the concentration scale where inhibition reaches its midpoint. `O=C(O)CNC(=O)[C@H](CS)NC(=O)CC[C@H](NC(=O)c1ccc(C(=O)c2ccccc2)cc1)C(=O)O` registered an IC50 of 1000 µM.
